The structures appear in SMILES notation. Where two headings read alike, the source gives them in different places.

One series concerns varicella-zoster (VZV). The conditions noted are these: in vivo, reported; cited from earlier work.
In series [1] the test system is herpes simplex virus type 1 (HSV-1). The conditions noted are these: in vivo, reported; cited from earlier work.
For series [2] the following is noted: background; more than 1 mg/mL typically requires pH below 4 or above 10; cited from earlier work.
A further series relates to herpes virus. The conditions noted are these: Neyts et al. 2001; Iwayama et al. 1998; cited from earlier work.
A short description of series [3]: Vehicle candidates tested to solubilize A-5021 at 5 mg/mL at neutral pH. The series is classed as physicochemical. The conditions noted are these: aqueous with cosolvent or surfactant or cyclodextrin, pH 6.98-7.1 1, read-out: concentration of A-5021 solubilized. The procedure:
Based on the above indicated results and in order to be able to formulate A-5021 at pharmacologically active concentrations (preferably about […]), it was considered to investigate of additional solubilizing agents and/or keeping a high amount of propylene glycol at neutral pH. In total 28 vehicle candidates were tested to solubilize A-5021 at 5 mg/mL at neutral pH: propylene glycol at concentration ranging from 20% to 80% w/v, glycofurol at concentration ranging from 5% to 50% w/v, glycerol at concentration ranging from 15% to 50% w/v, 15% w/v glycerol+15 w/v glycofurol, 25% w/v propylene glycol+25% w/v glycofurol, propylene glycol (range: 15%-60% w/v)+glycerol (range: 5%-15% w/v), 25% w/v Kleptose® HPB+25% propylene glycol, cremophor RH 40, cremophor EL, solutol HS 15, 40-50% Kleptose® HPB, miglyol 812N, liquid paraffin, polyvinylpyrrolidone K12.
Only four vehicles allowed solubilizing A-5021 at the concentration of 5 mg/mL (0.5% w/v) at close to neutral pH (the pH ranged from 6.98-7.1 1). These vehicles are (% w/v in water): • (i) 80% w/v propylene glycol; • (ii) 50% w/v Kleptose® HPB; • (iii) 60% w/v propylene glycol+15% w/v glycerol; • (iv) 60% w/v propylene glycol+10% w/v glycerol.

The subject of series [4] is herpes simplex virus type 2 (HSV-2). The conditions noted are these: in vivo, reported; cited from earlier work.
Series [5] is described as follows: Solubility of A-5021 by slurry experiments (24 h equilibration, filtration, HPLC of filtrate). Format: physicochemical. The conditions noted are these: for solubility at 24 h: thermodynamic from solid. The procedure: In order to determine the solubility of A-5021 (i.e. 2-amino-9-[[(1S,2R)-1,2-bis(hydroxymethyl)cyclopropyl]methyl]-1,9-dihydro-6H-Purin-6-one), a first series of 33 slurry experiments was performed. Within these experiments a set of 33 different systems (varying in i.e. buffers, co-solvents, solubilizing agents) were considered. The following six buffers were used: HCl buffer (pH 2), phosphate buffer (pH 6.8 and 7.4), tris(hydroxymethyl)aminoethane buffer (pH 9), sodium carbonate/bicarbonate (pH 10.8), and potassium dihydrogen phosphate (pH 12). As co-solvents dimethyl sulfoxide (DMSO), dimethyl acetamide (DMA), N-methyl pyrrolidone (NMP), ethanol (EtOH), and propylene glycol were used with varying concentrations. The solubilizing agents used were propylene glycol, glycerin, solutol HS 15, polysorbate 80, beta-cyclodextrin, hydroxypropyl beta-cyclodextrin (Kleptose® HPB), cremophor EL, cremophor RH 60, polyethylene glycol (PEG) 300, PEG 400, and sulfobutylether beta-cyclodextrin (e.g. Captisol®). The solubility was determined by filtration of the slurries after 24 h equilibration time. The A-5021 concentration in the filtrates was analyzed by High-Performance Liquid Chromatography (HPLC), from which the corresponding solubility was calculated.
Two different buffer systems, co-solvents, and solubilizing agents were considered with focus on systems that gave the best results as reported above. The solubility was again determined by filtration of the slurries after 24 h equilibration time. The A-5021 concentration in the filtrates was analyzed by HPLC, from which the corresponding solubility was calculated. Overall, no greater solubility values than the already reported values were found. […] A close to neutral pH buffered system (80% v/v propylene glycol and 20% v/v phosphate buffer at pH 7.4), which is of interest to develop ophthalmic solutions (allowing topical application of A-5021 to herpes virus-infected eyes) allows to solubilize A-5021 at 8.18 mg/mL. When 2-hydroxypropyl beta-cyclodextrin (HPBC) is used as a solubilizing agent instead of propylene glycol, the solubility of A-5021 decreases compared to the propylene glycol buffered systems.

Turning to `Nc1nc2c(ncn2C[C@]2(CO)C[C@H]2CO)c(=O)[nH]1` [Formulation A-5021, 2-amino-9-[[(1S,2R)-1,2-bis(hydroxymethyl)cyclopropyl]methyl]-1,9-dihydro-6H-Purin-6-one], the antiviral activity entry in the series with varicella-zoster (VZV) is “potent and selective antiviral agent”; in series [1] it was “potent and selective antiviral agent”; in series [4] it was “potent and selective antiviral agent”. Also, the solubility result in series [2] is “poor solubility”; in series [3] (vehicle (i) 80% w/v propylene glycol in water), 5000 µg/mL; in series [3] (vehicle (ii) 50% w/v Kleptose HPB in water) it was 5000 µg/mL; in series [3] (vehicle (iii) 60% w/v propylene glycol+15% w/v glycerol in water), 5000 µg/mL; in series [3] (vehicle (iv) 60% w/v propylene glycol+10% w/v glycerol in water), 5000 µg/mL. In the series on herpes virus, the “inhibition of herpes virus replication” value is reported as “potent inhibitor”. Further, the solubility at 24 h in series [5] (80% (v/v) propylene glycol / 20% (v/v) buffer, pH 1, aqueous with cosolvent or surfactant or cyclodextrin, 80% (v/v) propylene glycol in 20% (v/v) buffer (pH 1 1.3), highest solubility) was 8640 µg/mL; in series [5] (80% v/v propylene glycol / 20% v/v phosphate buffer, pH 7.4, aqueous with cosolvent or surfactant or cyclodextrin, 80% v/v propylene glycol and 20% v/v phosphate buffer at pH 7.4) it was 8180 µg/mL; in series [5] (pH 2.2, aqueous with cosolvent or surfactant or cyclodextrin, 60% v/v HCl buffer and 40% w/v HPBC, pH 2.2), 6760 µg/mL; in series [5] (pH 2.8, aqueous with cosolvent or surfactant or cyclodextrin, acidic pH 2.8 instead of pH 11.3, room temperature), 8500 µg/mL; in series [5] (pH 7, aqueous with cosolvent or surfactant or cyclodextrin, 5.7-33.34% v/v propylene glycol, 33.33-40% w/v/v HPBC, 33.34-54.3% v/v buffer, pH 7.0-7.4) it was 3280 to 4050 µg/mL; in series [5] (pH 7, aqueous with cosolvent or surfactant or cyclodextrin, 60% v/v HCl buffer and 40% w/v HPBC, pH 7) it was 4910 µg/mL. In addition, in series [5] (pH 12 buffered solutions), the “effect on solubility of adding an organic co-solvent” value is reported as “does not improve the solubility”.

These data come from US12465658B2, “Eye drop composition” (Aratana Therapeutics, Inc., priority 2012, dated 2025).
